Common to all, as to type: cell-based, human
One assay concerns HRE–bla ME-180 cells. In words: Viability (BLA): CellTiter-Glo counter screen in HRE–bla cells. Particulars: for Viability (BLA) confirmatory IC50: Table S7, 1% O2, 18 h; for IC50: Table S7, confirmatory screen, 1% O2, 18 h. A general note: In ATP-based viability assays light output follows the ATP content of the culture.
The subject of assay [1] is HIF-1α–NanoLuc HCT116 cells. Description: Viability (Luc): CellTiter-Glo counter screen in HIF-1α–NanoLuc cells. The following applies: for IC50: 1% O2, 18 h; for Viability (Luc) confirmatory IC50: Table S7, 1% O2, 18 h.
Assay [2] deals with hypoxia response element-beta-lactamase (HRE–bla). Description: HRE-bla reporter gene assay in ME-180 cells. Particulars: Table S7, confirmatory screen; for Emax: read-out: HRE–bla confirmatory Efficacy; for IC50: read-out: HRE–bla confirmatory IC50. On the technique in general: Reporter assays use an easily measured gene product as a stand-in for the process of interest.
Description: (§1) Cell culture of HRE–bla ME-180 cells (Cat. No. K1644, Life Technologies) and HRE–bla assay were conducted according to a reported protocol [6]. […] The fluorescence signals (460/25 nm and 530/20 nm) of CCF4 and luminescence signals of CellTiter-Glo were acquired on an Envision and a ViewLux plate readers (Perkin Elmer), respectively.
The next assay relates to HIF-1α–NanoLuc. Description: HIF-1α–NanoLuc reporter gene assay (qHTS primary and confirmatory screens).
The mark [3] stands for this setting: Homo sapiens, HCT-116, Table S7, confirmatory screen.
The mark [4] stands for this setting: Homo sapiens, Table S7, confirmatory screen, read-out: HIF-1α–NanoLuc confirmatory Efficacy.
[5] abbreviates: Homo sapiens, Table S7, confirmatory screen, read-out: HIF-1α–NanoLuc confirmatory IC50.
Where [6] appears, read: Homo sapiens, Table S7, primary screen, read-out: HIF-1α–NanoLuc primary Efficacy.
The mark [7] stands for this setting: Homo sapiens, Table S7, primary screen, read-out: HIF-1α–NanoLuc primary IC50.

Read-outs that look alike come from different tables or passages of the source. *1 amine or outer side, *2 acyl side, *3 side chain or, on linkers, in order; H or OH if unused. Where a SMILES comes first, the peptide text is derived from it. Bridges are numbered along the chain shown (N, C = ends). Roman numbers before positions name the chains, in order. [ ]: non-standard residue; d: D form. Actinocin(9to1) = Cc1c2oc3c(C)ccc(C(=O)[*:1])c3nc-2c(C(=O)[*:2])c(N)c1=O; NMeV = CN[C@H](C(=O)O)C(C)C; Sar = CNCC(=O)O

Description for HRE–bla ME-180 cells: as §1

Broadly, the IC50 is the concentration that inhibits the measured activity by half. With `Nc1nc2nc[nH]c2c(=S)[nH]1` [6-Thioguanine], in the assay on HRE–bla ME-180 cells, the “Viability (BLA) confirmatory IC50” value was “Inactive”. Moreover, the IC50 in assay [1] (setting [3]) came out at 2.3 ± 0.87 µM; in assay [2] (Homo sapiens, ME-180), 7.83 ± 1 µM; with HIF-1α–NanoLuc (setting [5]), 3.26 ± 0.81 µM; with HIF-1α–NanoLuc (setting [7]), 2.11 µM. Moreover, the Emax in assay [1] (Homo sapiens, HCT-116, Table S7, confirmatory screen, read-out: Viability (Luc) confirmatory Efficacy) was found to be 57 ± 2%; in assay [2] (Homo sapiens, ME-180) it was 88 ± 1%; in the assay with HIF-1α–NanoLuc (setting [4]), 81 ± 7%; in the assay with HIF-1α–NanoLuc (setting [6]), 81%.

As for `N#C/C(=C\c1ccc(-c2cc(Cl)ccc2Cl)o1)C(=O)Nc1cccc2ncccc12` [AGK2], the IC50 was 10.1 ± 2.97 µM in the assay with HRE–bla ME-180 cells; 21.2 ± 3.96 µM in assay [1] (Table S7, confirmatory screen); 9.47 ± 3.45 µM in assay [2]; 19.5 ± 2.49 µM in the assay with HIF-1α–NanoLuc (Table S2, validation, read-out: Pathway inhibitors (validation) HIF-1α–NanoLuc Activity IC50). Further, the “HRE–bla confirmatory Efficacy” value in assay [2] is on record as 63 ± 14%. Besides, the “Pathway inhibitors (validation) HIF-1α–NanoLuc Activity Efficacy” value in the assay with HIF-1α–NanoLuc (Table S2, validation) came out at 107± 9%. In addition, in the assay with HIF-1α–NanoLuc (Table S7, confirmatory screen), the “HIF-1α–NanoLuc confirmatory Efficacy” value is listed as 107 ± 9%.

For the compound `O=C1NCN(c2ccccc2)C12CCN(CCCOc1ccc(F)cc1)CC2` [AMI-193], the concentration for half-maximal inhibition (IC50) in the assay on HRE–bla ME-180 cells (Homo sapiens, ME-180) worked out at 25.8 ± 4.4 µM; in the assay on HIF-1α–NanoLuc (setting [5]), 12.2 ± 0.83 µM; in the assay on HIF-1α–NanoLuc (setting [7]) it was 3.35 µM. In addition, the “Viability (Luc) confirmatory IC50” value in assay [1] is reported as “Inactive”. Besides, the “HRE–bla confirmatory IC50” value in assay [2] was “Inactive”. The Emax stood at 48 ± 6% in the assay with HIF-1α–NanoLuc (setting [4]) and 57% in the assay with HIF-1α–NanoLuc (setting [6]).

As to `Cc1c2oc3c(C)ccc(C(=O)N[C@@H]4C(=O)N[C@H](C(C)C)C(=O)N5CCC[C@H]5C(=O)N(C)CC(=O)N(C)[C@@H](C(C)C)C(=O)O[C@@H]4C)c3nc-2c(C(=O)N[C@@H]2C(=O)N[C@H](C(C)C)C(=O)N3CCC[C@H]3C(=O)N(C)CC(=O)N(C)[C@@H](C(C)C)C(=O)O[C@@H]2C)c(N)c1=O` [Actinomycin D] (I: T[dV]P[Sar][NMeV] / II: T[dV]P[Sar][NMeV]; ester I:1-I:C, II:1-II:C; linker I:N-II:N via Actinocin(9to1)), the 50% inhibitory concentration (IC50) in the assay with HRE–bla ME-180 cells (Homo sapiens, ME-180) worked out at 1.52 ± 2.33 µM; in assay [2] (Homo sapiens, ME-180) it was 0.02 µM; with HIF-1α–NanoLuc (Homo sapiens, 18 h, read-out: IC50 (primary screen, HIF-1α–NanoLuc assay)), 0.04 µM; in the assay with HIF-1α–NanoLuc (Homo sapiens, read-out: HIF-1α–NanoLuc confirmatory IC50) it was 0.03 ± 0.01 µM. Also, the “Viability (Luc) confirmatory IC50” value in assay [1] was “Inactive”. Further, the Emax came to 78 ± 5% in assay [2] (Homo sapiens, ME-180); 99% in the assay with HIF-1α–NanoLuc (Homo sapiens, read-out: Efficacy (primary screen, HIF-1α–NanoLuc assay)); 87 ± 4% in the assay on HIF-1α–NanoLuc (Homo sapiens, read-out: HIF-1α–NanoLuc confirmatory Efficacy); 99% with HIF-1α–NanoLuc (Homo sapiens, read-out: HIF-1α–NanoLuc primary Efficacy). The “Effect on HIF-1α–NanoLuc level / luciferase activity, in words” value with HIF-1α–NanoLuc is listed as “caused reduced NanoLuc activity”.

For `CCCCC(CC)CNC(=N)NC(=N)NCCCCCCNC(=N)NC(=N)NCC(CC)CCCC` (centres unmarked) [Alexidine], the IC50 with HRE–bla ME-180 cells (Homo sapiens, ME-180) came to 8.83 ± 1.59 µM; in assay [1] (setting [3]) it was 18.9 ± 3.53 µM; in assay [2] (Homo sapiens, ME-180), 8.78 ± 1.12 µM; with HIF-1α–NanoLuc (setting [5]), 9.35 µM; in the assay with HIF-1α–NanoLuc (setting [7]), 10.6 µM. Also, the Emax in assay [2] (Homo sapiens, ME-180) stood at 87 ± 18%; with HIF-1α–NanoLuc (setting [4]) it was 107 ± 2%; in the assay with HIF-1α–NanoLuc (setting [6]), 126%.

Turning to `Cn1cnc([N+](=O)[O-])c1Sc1ncnc2nc[nH]c12` [Azathioprine], the “Viability (BLA) confirmatory IC50” value in the assay with HRE–bla ME-180 cells is on record as “Inactive”. Besides, the concentration for half-maximal inhibition (IC50) in assay [1] (setting [3]) worked out at 2.11 ± 0.53 µM; with HIF-1α–NanoLuc (setting [5]), 8.07 ± 1.82 µM; with HIF-1α–NanoLuc (setting [7]), 3.42 µM. For the same compound, the “HRE–bla confirmatory IC50” value in assay [2] was “Inactive”. The Emax with HIF-1α–NanoLuc (setting [4]) stood at 50 ± 11%; in the assay with HIF-1α–NanoLuc (setting [6]), 67%.

Turning to `CC(=O)Oc1ccc(C(c2ccc(OC(C)=O)cc2)c2ccccn2)cc1` [Bisacodyl], the IC50 in the assay on HRE–bla ME-180 cells (Homo sapiens, ME-180) is 0.69 ± 0.05 µM; in assay [2] (Homo sapiens, ME-180), 0.84 ± 0.1 µM; with HIF-1α–NanoLuc (setting [5]), 3.91 ± 0.7 µM; with HIF-1α–NanoLuc (setting [7]) it was 0.84 µM. For the same compound, in assay [1], the “Viability (Luc) confirmatory IC50” value is given as “Inactive”. In addition, the Emax in assay [2] (Homo sapiens, ME-180) came to 93 ± 4%; with HIF-1α–NanoLuc (setting [4]) it was 26 ± 6%; with HIF-1α–NanoLuc (setting [6]) it was 110%.

`C=CC(=O)Nc1cc2c(Nc3ccc(F)c(Cl)c3)ncnc2cc1OCCCN1CCOCC1` [Canertinib]: the IC50 in the assay on HRE–bla ME-180 cells (Homo sapiens, ME-180) came out at 21.2 ± 2.44 µM; in assay [2] (Homo sapiens, ME-180) it was 4.67 ± 7.5 µM; in the assay on HIF-1α–NanoLuc (Homo sapiens, Table S2, primary screen, read-out: Pathway inhibitors (primary screen) HIF-1α–NanoLuc Activity IC50), 2.37 µM; in the assay on HIF-1α–NanoLuc (Homo sapiens, Table S2, validation, read-out: Pathway inhibitors (validation) HIF-1α–NanoLuc Activity IC50) it was 24.8 ± 10.7 µM; in the assay with HIF-1α–NanoLuc (setting [5]), 28.8 ± 10.7 µM. Moreover, in assay [1], the “Viability (Luc) confirmatory IC50” value is “Inactive”. Besides, the Emax in assay [2] (Homo sapiens, ME-180) was found to be 37 ± 22%; in the assay with HIF-1α–NanoLuc (Homo sapiens, Table S2, primary screen, read-out: Pathway inhibitors (primary screen) HIF-1α–NanoLuc Activity Efficacy), 50%; in the assay on HIF-1α–NanoLuc (Homo sapiens, Table S2, validation, read-out: Pathway inhibitors (validation) HIF-1α–NanoLuc Activity Efficacy), 88 ± 20%; with HIF-1α–NanoLuc (setting [4]), 88 ± 20%; with HIF-1α–NanoLuc (setting [6]), 50%.

Consider `O=C(Nc1ccc(Cl)cc1)Nc1ccc(Cl)c(C(F)(F)F)c1` [Cloflucarban], for which the IC50 is 22.9 ± 3.16 µM in the assay on HRE–bla ME-180 cells (Homo sapiens, ME-180); 6.8 ± 1.55 µM in assay [2] (Homo sapiens, ME-180); 14.3 ± 0.93 µM in the assay with HIF-1α–NanoLuc (setting [5]); 7.5 µM in the assay on HIF-1α–NanoLuc (setting [7]). Further, the “Viability (Luc) confirmatory IC50” value in assay [1] is on record as “Inactive”. Further, the Emax in assay [2] (Homo sapiens, ME-180) stood at 98 ± 1%; with HIF-1α–NanoLuc (setting [4]) it was 98 ± 4%; in the assay with HIF-1α–NanoLuc (setting [6]), 66%.

Regarding `CC[C@H]1CN2CCc3cc(OC)c(OC)cc3[C@@H]2C[C@@H]1C[C@H]1NCCc2cc(OC)c(OC)cc21` [Emetine], in the assay with HRE–bla ME-180 cells, the “Viability (BLA) confirmatory IC50” value is recorded as “Inactive”. In addition, in assay [2] (Homo sapiens, ME-180), the Emax amounted to 91 ± 1% and the half-inhibitory concentration (IC50) was 0.29 ± 0.05 µM.

As to `Cc1oncc1C(=O)Nc1ccc(C(F)(F)F)cc1` [Leflunomide], the “Viability (BLA) confirmatory IC50” value in the assay with HRE–bla ME-180 cells is given as “Inactive”. In addition, in assay [2], the “HRE–bla confirmatory IC50” value is “Inactive”.

As to `COc1ccccc1N1CCN(CC(O)COc2cccc3ccccc23)CC1` (centres unmarked) [Naftopidil], the “Viability (BLA) confirmatory IC50” value in the assay on HRE–bla ME-180 cells is “Inactive”. In addition, the “HRE–bla confirmatory IC50” value in assay [2] is on record as “Inactive”.

Turning to `C[C@]1(O)C[C@@H](c2nc(-c3ccc4ccc(-c5ccccc5)nc4c3)c3c(N)nccn32)C1` [OSI-906], the IC50 in the assay with HIF-1α–NanoLuc (Homo sapiens, HCT-116, HCT116 reporter cells, hypoxia, read-out: HIF-1α–NanoLuc IC50) was determined as 6.23 ± 1.64 µM.

(Values after paper PMC4884984, “Identification of approved and investigational drugs that inhibit hypoxia-inducible factor-1 signaling” (Oncotarget, 2016).)
